Assay results from patent US20240300977A1, “INHIBITORS OF DNA-DEPENDENT PROTEIN KINASE AND COMPOSITIONS AND USES THEREOF” (Intellia Therapeutics, Inc., priority 2021, published 2024).

Key:
[1] = system: T cells; experiment: Insertion percent in T cells of Example 17; format: cell-based, human; conditions: T cells from Example 12; FIG. 9B
Description: On day 8 post-editing, T cells from Example 12 from the untreated, unedited, Compound 3 and Compound 4 guides samples were collected, spun down and the pellets were directly used as input material for gDNA isolation using “Zymo Quick DNA/RNA Mag Beads Kit” (Zymo Cat. R2131). The UnIT structural variant characterization assay was applied to these gDNA samples. High molecular weight genomic DNA is simultaneously fragmented and sequence-tagged (‘tagmented’) with the Tn5 transposase and an adapter with a partial Illumina P5 sequence and a 12 bp unique molecular identifier (UMI). Two sequential PCRs using a primer to P5 and hemi-nested gene specific primers (GSP) imparting the Illumina the P7 sequence to create two Illumina compatible NGS libraries per sample (Illumina, Ref 15033624). Sequencing across both directions of the CRISPR/Cas9 targeted cut site with the two libraries allows the inference and quantification of structural variants in DNA repair outcomes after genome editing. If the two fragments were aligned to different chromosomes, the SV was classified as an “inter-chromosomal translocation.” The magnitude of structural variation was shown in FIG. 9A and Table 18.

[2] = system: TRAC; conditions: human
[3] = system: T cells; experiment: HD3 TCR insertion within TRAC in T cells, flow cytometry; format: cell-based, human; conditions: Spy Cas9 + Compound 4, HD3 TCR AAV, day 7
Method: 48 hours post-activation, T cells were harvested, centrifuged at 500 g for 5 min, and resuspended at a concentration of 6.41×10^5 T cells/mL in T cell plating media (TCPM): a serum-free version of TCGM containing 400 U/mL recombinant human interleukin-2 (Peprotech, Cat. 200-02), 10 ng/mL recombinant human interleukin 7 (Peprotech, Cat. 200-07), and 10 ng/mL recombinant human interleukin 15 (Peprotech, Cat. 200-15). 50 μL of T cells in TCPM (3.2×10^4 T cells) were added per well to be treated in flat-bottom 96-well plates.
LNPs were generated as described in Example 1 at a ratio of 50/38.5/10/1.5 (Lipid A/cholesterol/DSPC/PEG2k-DMG).
Mix “A” was serially diluted 1:2 in TCTM, and mixed 1:1 by volume with mix “B”. 25 μL of the resulting solution was added to 3.2×10^4 T cells in 96-well plates.
Next, a repair template in the form of an adeno-associated virus (AAV) encoding the HD3 TCR (SEQ ID NO: 18 was diluted in TCTM to 3.84×10^11 genome copies/mL in the presence or absence of Compound 4 diluted to 2 μM. 25 μL of the resulting solution was added to T cells that were treated with LNPs in the prior step. To enable editing assessments by NGS without the interference of repair templates, an arm of this experiment received 25 μL of TCTM with or without Compound 4 diluted to 2 μM in the absence of AAVs.
Following the addition of LNPs, repair templates and Compound 4, T cells were incubated at 37° C. for 48 hours, at which time T cells were centrifuged at 500 g for 5 min, resuspended in 200 μL of TCGM and returned to the incubator.
Also on day 4 post-treatment, cells that received AAV templates were mixed and sub-cultured at a 1:4 ratio (v/v) in TCGM. On day 7 post-treatment, cells that received AAV templates were evaluated by flow cytometry.
On day 7 post-LNP treatment, 50 μL of cells were transferred to U-bottom 96-well plates and spun down for 5 min at 500 g. The supernatant was discarded, cells were resuspended in 100 μL of FACS buffer containing Viakrome 808 (Beckman C., Cat. C36628) (1:100), PC5.5 anti-CD3 (Biolegend, Cat. 317336) (1:200), BV421 anti-CD4 (Biolegend, Cat. 317434) (1:100), BV785 anti-CD8 (Biolegend, Cat. 301046) (1:100), and anti-V07.2 (Beckman C., IM3604) (1:50) and stained for 30 min at 4° C. in the dark. Cells were washed once with 200 μL of FACS buffer, resuspended in 100 μL of FACS buffer and processed on a Cytoflex LX flow cytometer.

With `Cc1cc2ncnn2cc1Nc1ncc2c(n1)n(C1CCC3(CC1)CC3)c(=O)n2C` [Compound 4, 7-methyl-2-((7-methyl-[1,2,4]triazolo[1,5-a]pyridin-6-yl)amino)-9-(spiro[2.5]octan-6-yl)-7,9-dihydro-8H-purin-8-one] the “Insertion Percent (Average)” value [1] was 67.82%, the “Sites Validated” value [2] was 0 and the “Mean CD3^+ Vβ7.2^+ T Cells %” value ([3]; sgRNA 0 μg/mL) was 0.79%. For the same compound, the “Mean CD3^+ Vβ7.2^+ T Cells %” value ([3]; sgRNA 0.026 μg/mL) was 35.20%, the “Mean CD3^+ Vβ7.2^+ T Cells %” value ([3]; sgRNA 0.052 μg/mL) was 44.50% and the “Mean CD3^+ Vβ7.2^+ T Cells %” value ([3]; sgRNA 0.104 μg/mL) was 52.60%. The “Mean CD3^+ Vβ7.2^+ T Cells %” value ([3]; sgRNA 0.209 μg/mL) was 56.10%, the “Mean CD3^+ Vβ7.2^+ T Cells %” value ([3]; sgRNA 0.418 μg/mL) was 53.80% and the “Mean CD3^+ Vβ7.2^+ T Cells %” value ([3]; sgRNA 0.835 μg/mL) was 53.30%. The “Mean CD3^+ Vβ7.2^+ T Cells %” value ([3]; sgRNA 1.67 μg/mL) was 49.65%.
